Test results as given in US6605424B1, “Method of detecting inhibitors of agonist-specific desensitization” (Duke University, priority 1989, dated 2003).
No end group written: not given here.

Assays:
βAR kinase [1] = molecular target: T1, βAR kinase (Bos taurus, UniProt P21146); test: Phosphorylation of purified reconstituted β2ARs by purified βAR kinase (Example II); format: biochemical, bovine; details: 100 μM
T1 construct: βAR kinase was purified from bovine cerebral cortex; from tissue; host or cells: bovine cerebral cortex
T1 sequence (P21146 1-689): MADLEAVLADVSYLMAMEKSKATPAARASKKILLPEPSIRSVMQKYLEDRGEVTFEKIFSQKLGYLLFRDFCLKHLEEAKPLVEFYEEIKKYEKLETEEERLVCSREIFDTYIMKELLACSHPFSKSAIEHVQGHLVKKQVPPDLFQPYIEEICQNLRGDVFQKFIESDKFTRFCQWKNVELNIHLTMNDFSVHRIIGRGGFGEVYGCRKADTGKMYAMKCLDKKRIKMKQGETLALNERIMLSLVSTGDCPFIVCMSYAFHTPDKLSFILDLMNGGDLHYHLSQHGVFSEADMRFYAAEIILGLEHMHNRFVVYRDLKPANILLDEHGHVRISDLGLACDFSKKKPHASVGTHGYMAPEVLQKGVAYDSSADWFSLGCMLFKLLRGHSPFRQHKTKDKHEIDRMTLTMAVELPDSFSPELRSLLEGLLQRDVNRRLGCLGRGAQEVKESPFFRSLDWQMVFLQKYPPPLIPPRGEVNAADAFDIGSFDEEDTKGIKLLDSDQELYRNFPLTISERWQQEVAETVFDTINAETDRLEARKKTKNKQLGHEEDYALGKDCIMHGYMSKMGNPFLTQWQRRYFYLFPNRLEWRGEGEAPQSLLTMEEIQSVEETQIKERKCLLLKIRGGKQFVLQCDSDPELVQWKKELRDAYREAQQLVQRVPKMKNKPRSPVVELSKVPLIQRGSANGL
Description: FIG. 7. […] (Inset) Relevant section of a representative autoradiogram. Data are means±SEM of three independent experiments. […] Desensitization was measured as the percent loss of stimulation by 10 μM (−)-isoproterenol of adenylyl cyclase activity in membranes. […] Data are means±SEM of four independent experiments.
Purified β2ARs were inserted into phosphatidylcholine vesicles by chromatography on Extracti-gel, followed by polyethylene glycol treatment and centrifugation at 280,000×g for 90 min (Cerione et al (1984) Biochemistry 23:4519-4525). Phosphorylation of the reconstituted receptors by purified βAR kinase was done in the presence of 50 μM (−)-isoproterenol as described (Benovic et al (1987) J. Biol. Chem. 262:9026-9032). Subsequently, the samples were subjected to sodium dodecyl sulfate polyacrylamide gel electrophoresis on 10% gels (Laemmli (1970) Nature 227:680-685). The phosphorylated β2ARs were visualized by autoradiography, and the corresponding bands were cut out and their content of ^32P quantified.

[2] = test system: β2ARs in permeabilized A431 cells; test: Desensitization of β2ARs in permeabilized A431 cells; format: cell-based, human; details: 100 μM
Description: Permeabilization of cells was accomplished as follows. Human epidermoid carcinoma A431 cells were grown to about 95% confluence in Dulbecco's modified Eagle's medium supplemented with 10% fetal calf serum. Cells were harvested with collagenase, washed three times with calcium-free phosphate-buffered saline (PBS), then washed twice in 150 mM potassium glutamate/10 mM Hepes/5 mM EGTA/7 mM MgCl2, pH 7.1 (KG buffer), and finally resuspended in KG buffer supplemented with 5 mM glucose and 2 mM ATP (KG-A buffer) at a density of 4×10^7 cells per ml.
At 4×10^7 cells per ml, about 0.015% digitonin was necessary to achieve permeabilization of >95% cells as assessed by staining with trypan blue. In all experiments, digitonin was added stepwise until >95% of the cells were trypan blue positive.

βAR kinase [3] = molecular target: T1, βAR kinase; test: Inhibition of β2AR phosphorylation by βAR kinase by synthetic peptides (Example III); format: biochemical, bovine
Description: FIG. 13. Inhibition of β2AR phosphorylation by synthetic peptides. Reconstituted β2AR (˜0.4 pmol) was incubated for 30 min at 30° with purified βAR kinase (˜30 ng) in the presence of 50 mM Tris-HCl, pH 7.5, 2 mM EDTA, 10 mM NaCl, 5 mM MgCl2, 5 mM sodium phosphate, 50 μM (−)-isoproterenol and 0.10 mM [γ^32P]ATP (2.0 cpm/fmol). Synthetic β2AR peptides were varied from 0 to 1 mM and included CI (Δ), CII (▴), CIII-2 (◯) and CT-1 (●). Reactions were stopped by the addition of […]. ^32P-labeled receptor was determined by cutting and counting the dried gel following autoradiography.
The β2-adrenergic receptor from hamster lung was purified to apparent homogeneity by sequential affinity and high performance liquid chromatography as described (Benovic et al (1984) Biochemistry 23:4510-4518). The purified receptor was reinserted into phosphatidylcholine vesicles as previously described (Cerione et al (1983) Nature 306:562-566). The protein-lipid pellets were resuspended in 20 mM Tris-HCl, pH 7.2, 2 mM EDTA and used as a substrate for the βAR kinase.
(§1) βAR kinase was purified from bovine cerebral cortex by modification of a previously described procedure (Benovic et al (1987) J. Biol. Chem. 262:9026-9032). Briefly, 250 g of bovine cortex was homogenized and the resulting high speed supernatant fraction was precipitated with 13-26% ammonium sulfate. This material was initially chromatographed on an Ultrogel AcA34 column equilibrated with 5 mM Tris-HCl, pH 7.5, 2 mM EDTA, 5 μg/ml leupeptin, 5 μg/ml pepstatin, 15 μg/ml benzamidine, 0.2 mM phenylmethyl sulfonyl fluoride (buffer A). The peak activity was diluted 1:1 with buffer A containing 0.02% triton X-100 and applied to a DEAE Sephacel column. Elution was accomplished with a 0-80 mM NaCl gradient in buffer A containing triton X-100. The peak activity was then applied directly to a CM Fractogel column and eluted with a 0-100 mM NaCl gradient in buffer A containing triton X-100. The purified kinase was stored at 4° C.
The inhibition of substrate phosphorylation by βAR kinase in the presence of synthetic peptides was assayed as follows. Reconstituted βAR (0.2-1 pmol/inclubation) was incubated with βAR kinase (10-30 ng) in a buffer containing 50 mM Tris-HCl, pH 7.5, 2 mM EDTA, 10 mM NaCl, 5 mM MgCl2, 5 mM sodium phosphate, 50 μM (−)-isoproterenol, 0.10 mM [γ-^32P]ATP (1-3 cpm/fmol) at 30° C. for 30 min. Synthetic β2AR peptides were varied in concentration from 0 to 2 mM. Reactions were quenched by the addition of SDS sample buffer followed by gel electrophoresis. In some experiments urea treated rod outer segments (Wilden et al (1982) Biochemistry 21:3014-3022; Shichi et al (1978) J. Biol. Chem. 253:7040-7046) were used as the substrate for βAR kinase. To further define the specificity of the peptide inhibition, phosvitin, casein (see Example I) and the synthetic peptides CT-2 and CT-3 were used as substrates for βAR kinase.
SDS polyacrylamide gel electrophoresis was performed by the method of Laemmli (Nature (1970) 227:[…]) using 10 or 15% homogeneous slab gels. SDS sample buffer contained 8% SDS, 10% glycerol, 5% β-mercaptoethanol, 25 mM Tris-HCl, pH 6.5 and 0.003% bromphenol blue. SDS urea polyacrylamide gel electrophoresis was carried out using 6.5 M urea, 0.1% SDS, 100 mM H3PO4, pH 6.8 with Tris-HCl and 9% acrylamide (Swank et al (1971) Anal. Biochem. 39:462). SDS urea sample buffer contained 1% SDS, 8M urea, 10 mM H3PO4, pH 6.8 with Tris-HCl, 1% β-mercaptoethanol and 0.003% bromphenol blue.

βAR kinase [4] = molecular target: T1, βAR kinase; test: Phosphorylation of β2AR and synthetic β2AR peptides by βAR kinase (substrate kinetics); format: biochemical, bovine; details: for phosphorylation by βAR kinase: FIG. 10; for Ratio (Vmax/Km relative to β2AR + ISO): substrate of βAR kinase
Description: FIG. 11. Kinetic parameters of the βAR kinase for β2AR. Reconstituted β2AR (0.05-0.3 μM) was incubated for 15 min at 30° C. with purified βAR kinase (˜30 ng) in the presence (◯) or absence (●) of 50 μM (−)-isoproterenol. Reactions were stopped by the addition of SDS sample buffer before electrophoresis on a 10% SDS polyacrylamide gel. ^32P-labeled receptor was determined by cutting and counting the dried gel following […] autoradiography.
FIG. 12. Kinetic parameters of the βAR kinase for synthetic peptides CT-2 and CT-3. The synthetic β2AR peptides CT-2 (0.6-3.3 mM;Δ) and CT-3 (0.6-4.3 mM; ▴) were incubated for 60 min at 30° C. with purified βAR kinase (˜30 ng). Reactions were stopped by the addition of SDS urea sample buffer before electrophoresis on a 9% SDS urea polyacrylamide gel. ^32P-labeled peptide was determined by cutting and counting the gel following autoradiography.
as §1
Phosphorylation of βAR was accomplished by incubating reconstituted βAR (0.5-5 pmol/incubation) with βAR kinase (10-50 ng) in a buffer containing 20 mM Tris-HCl, pH 7.5, 2 mM EDTA, 10 mM NaCl, 5 mM MgCl2, 5 mM sodium phosphate, 0.5 mM ascorbic acid, 0.15 mM [γ-^32P]ATP (1-5 cpm/fmol) at 30° C. for the indicated time (see Figures indicated below and corresponding description). Some incubations also contained 50 μM (−)-isoproterenol. Incubations were stopped by the addition of 50 μl of SDS sample buffer followed by electrophoresis on 10% homogeneous polyacrylamide gels. Phosphorylated βAR was visualized by autoradiography and the corresponding bands were excised and counted to determine the pmol of phosphate incorporated.
Synthetic βAR peptides were phosphorylated as follows by βAR kinase. […] Following autoradiography the phosphorylated peptides were excised and counted to determine the amount of phosphate incorporated. […]

Row | Sequence | inhibition at 100 µM (βAR kinase [1]) [%] | Inhibition of Desensitization, % [2] [%] | IC50 (βAR kinase [3]; hamster β2AR peptides, ND = no significant inhibition at ˜500 μM, read-out: IC50 (μM), inhibition of β2AR phosphorylation by βAR kinase) [µM] | phosphorylation by βAR kinase (βAR kinase [4]) | Ratio (Vmax/Km relative to β2AR + ISO) (βAR kinase [4]) | inhibition of β2AR phosphorylation (βAR kinase [3]; tested at ˜0.5 mM)
1 | AKFERLQTVTN [β2AR-(59-69)] | 0 | 3 ± 12 |  |  |  | 
2 | GYSSNSNGKTDYMGEASGCQLGQEKESER [CT-2 (353-381)] |  |  | 142 | are phosphorylated by βAR kinase | 2.3 × 10^−6 | 
3 | QGTVPSLSLDSQGRNCSTNDSPL [CT-3 (396-418)] |  |  |  | are phosphorylated by βAR kinase | 1.3 × 10^−6 | do not inhibit
